These are literature values, as cited in patent publication US11039992B2, “Stable redox compositions and methods of use” (Reoxcyn, LLC, priority 2017, dated 2021).

For this data set the following is noted: pH-neutral aqueous solution (pH around 7.0) at room temperature.

Structures are written as SMILES.

Take `O=[O+][O-]` [ozone]: the half-life result was “about 20 minutes”.
